Measurements taken from ChEMBL document CHEMBL3045381, “Antiproliferative activity of pentadeca-(8E, 13Z) dien-11-yn-2-one and (E)-1,8-pentadecadiene from Echinacea pallida (Nutt.) Nutt. roots” (Med Chem Res, 2013).
Calls of active or inactive are those of the source. The rule behind the calls is not given here.

Key:
Format in all cases: functional, cell-based
HeLa [1] = assay: Antiproliferative activity against Homo sapiens (human) HeLa cells at 5 to 40 ug/ml after 24 hr by BRdU incorporation assay
C6 [2] = assay: Antiproliferative activity against Rattus norvegicus (rat) C6 cells at 5 to 75 ug/ml after 24 hr by BRdU incorporation assay
HeLa [3] = assay: Antiproliferative activity against Homo sapiens (human) HeLa cells at 5 to 100 ug/ml after 24 hr by BRdU incorporation assay
C6 [4] = assay: Antiproliferative activity against Rattus norvegicus (rat) C6 cells at 5 to 100 ug/ml after 24 hr by BRdU incorporation assay

| Structure (SMILES) | Activity (HeLa [1]) | Activity (C6 [2]) | Activity (HeLa [3]) | Activity (C6 [4]) |
| --- | --- | --- | --- | --- |
| C/C=C\C#CC/C=C\CCCCCC(C)=O | Active | Active | – | – |
| C=CCCCCC/C=C/CCCCCC | – | – | inactive | inactive |
